The results in this text go back to US8283481B2, “Inhibitors of a 9-cis epoxycarotenoid dioxygenase” (National Research Council of Canada, priority 2008, dated 2012).

The test system of one experiment is AtNCED3. The experiment can be described thus: qRT-PCR transcript level in mannitol stressed plants: AtNCED3. Format: in vivo, Arabidopsis thaliana. The following applies: 10 and 33 μM, mannitol stress. As for the experimental part: For each condition to be tested, three hundred wild-type Arabidopsis thaliana Col-0 seeds (LEHLE) were sterilized, vernalized and sewn onto 200 mL of Sunshine Mix #3 (Sun Gro) potting material in an 8×8×4 cm pot. Plants were watered continuously with 25 g/100 mL of 20-20-20 (PlantProdTM) fertilizer and grown at 22° C. with a 16 hour photoperiod for 22 days. Plants were pre-treated with 50 mL/pot of Buffer A (10 mM HEPES pH 6.5) (Sigma)+/-10 or 33 μM test compound for 2 hours. Plants were then soaked with 50 mL/pot of Buffer A containing 0.4 M mannitol (Sigma)+/-10 or 33 μM test compound. Non-treated/non-stressed control plants were simply soaked in Buffer A at the designated time points. Aerial plant tissue was harvested after 6, 12 and 48 hours from the time of initial inhibitor treatment and flash frozen in liquid nitrogen. Half of the tissue samples were lyophilized for metabolite profiling and the other half taken for quantitative reverse-transcription polymerase chain reaction (qRT-PCR) analysis. […] The resulting mRNA was quantified and checked for quality using a Nano-DropTM ND-1000 Spectrophotometer. QuantiTectTM Reverse Transcription Kit (Qiagen) was used to produce cDNA as directed by the manufacturer from 20 ng of starting mRNA. Quantitative PCR was performed on 1 μL of cDNA product using a Bio-Rad iCyclerTM and the QuantiTectTM SYBR Green PCR Kit (Qiagen) coupled with QuantiTectTM Primer Assays (Qiagen) for the gene targets; […]-112304), Rd29B (NM-124609), CYP707A1 (NM-118043), CYP707A3 (NM-123902) and UBQ10 (NM-178968). The pre-validated primer sets are as follows indicated by the GeneGlobe (www1.qiagen.com/GeneGlobe/default.aspx) product name and (catalogue number): At_NCED3-1_SG (QT00769573), At_RD29B-1_SG (QT00840399), At_CYP707A1-1_SG (QT00808339), At_CYP707A3-1_SG (QT00739242), At_UBQ10_va.1_SG (QT01123745). Relative changes in transcript level were normalized using UBQ10 and quantified as previously described.^41

The test system of experiment [1] is Arabidopsis thaliana Col-0 seeds. Briefly: Seed germination assay. In kind it is in vivo. As for the experimental part:
Arabidopsis thaliana Col-0 seeds were sterilized by washing them with 10% sodium hypochlorite and 20% sodium dodecyl sulfate (Sigma) for five minutes and then rinsing four times with sterile water. Seeds were moist chilled for 4 days and then plated on germination medium (0.41% MS salts, 1% sucrose, 0.05% MES and 0.1% Gamborg's vitamins, pH 5.7, 0.7% agar) (Sigma) containing either 0.1, 0.33, 1.0 or 3.33 μM of inhibitor or (+)-ABA 1. As a control, seeds were sewn and germinated on media only without inhibitors or (+)-ABA 1. Germination was recorded over seven days and indexes calculated as described previously.^40

For the next experiment, the target named is T1, recombinant AtNCED3 (Arabidopsis thaliana, UniProt Q9LRR7).
T1 construct: glutathione-S-transferase (GST) (C); made in house; host or cells: E. coli BL21(DE3), pRL296 vector
Briefly: Recombinant AtNCED3 in vitro enzyme assay (HPLC, cleavage of 9-cis-neoxanthin). In kind it is biochemical. As to conditions: for Ki: Dixon plot, competitive inhibition, 0-250 μM inhibitor, 9-cis-neoxanthin at 50 (55), 30 and 10 μM; for relative inhibition of AtNCED3 activity (in words): in vitro enzyme assay, 1 mM concentration (FIG. 5). An excerpt:
Fresh spinach was macerated under liquid nitrogen and extracted five times with three volumes of methanol/0.1% KOH. Samples were dried using a roto-evaporator, resuspended in acetone and then chilled on ice for one hour. The solvent was subsequently transferred to a new flask, roto-evaporated and resuspended in acetonitrile/acetone (1:1) mixture. The mixture was applied to a gravity flow column containing C-18 silica gel (Sigma) equilibrated in 65% acetonitrile/35% water (solvent C). The column was washed with 49% acetone (solvent D)/51% solvent A and 20 mL of 55% solvent D/45% solvent A while collecting 5 mL fractions. Fractions containing neoxanthin were pooled, dried, and resuspended in 100 μL of methanol. The pooled mixture was separated using an Agilent 1100 series HPLC and a Supelcosil™ LC-18 (25 cm×10 mm, 5 m) (Supelco) column equilibrated with solvent A. The HPLC method consisted of a linear gradient over 30 minutes from 100% solvent A to 100% solvent D with a flow rate of 4 mL/minute at 22° C. and monitored with a PDA detector at 436 nm. The neoxanthin fractions were collected, dried and resuspended in ethanol. Neoxanthin was quantified by determining its OD439 using a PerkinElmer Lambda 35 UV/VIS Spectrometer and applying its extinction coefficient of 2243 (A^1%1cm).^30
AtNCED3 was over-expressed using the pRL296 expression vector (a gift from M. Cygler, BRI, Montreal) in E. coli (BL21)DE3 cells as a glutathione-S-transferase fusion protein and affinity purified using glutathione sepharose 4 fast flow resin (GE Healthcare) as described previously.^35 Essentially, cells were grown to an OD600 of 0.45 at 37° C. and 200 rpm shaking. The culture was induced with 1 mM isopropyl-β-d-thiogalactoside for 16 h at 15° C. and 200 rpm shaking. The cells were pelleted and resuspended in 50 mM Tris-HCl (pH 8.0) 1 mM DTT and 0.5% protease inhibitor cocktail set III (CalBiochem). Cells were lysed using a french press at 20,000 psi and affinity purified as per manufacturer's instructions (GE Healthcare). Protein concentration was determined by the method of Bradford.^36
Enzymatic assays contained 100 mM Bis-Tris (pH 6.7), […], 10 mM ascorbate, 0.05% Triton™ X-100, catalase (1 mg/mL), neoxanthin and inhibitor to a total volume of 5 L of ethanol and 8 g AtNCED3 to a total assay volume of 100 L. Assays were incubated at 22° C. for 20 min. The assays were stopped with the addition of 50 L of 25% Triton™ X-100 and extracted with 150 L of ethyl acetate. All procedures were performed under red-light to minimize photo-induced damage to assay components and products.^6 Fine chemicals and solvents were purchased from Sigma-Aldrich. 75 μL of the assay extract was injected into an Agilent 1100 series HPLC machine equipped with a Supelcosil™ LC-18 (3.3 cm×4.6 mm, 3 m) (Supelco) column pre-equilibrated with 15% acetonitrile (solvent B)/85% water (solvent A). Solvent B increased to 35% over ten minutes, followed by a linear gradient of 65% solvent B to 100% solvent D over 10 minutes. Solvent D was maintained at 100% for 2 minutes and then the column was returned to 15% solvent B for 5 min. The flow rate was maintained at 1.5 mL/min. and monitored with a photodiode array (PDA) detector at 436 and 262 nm.
Evaluation of recombinant AtNCED3 kinetic parameters for Km was accomplished using Michaelis-Menten equation plotted with EnzFitter™ v2.0.18.0 (Biosoft). The Ki for inhibitors was determined using a Dixon plot and concentration ranges of 250, 200, 150, 100, 50 and 0 μM inhibitor in the presence of either 55, 30 or 10 μM 9-cis-neoxanthin 2.^5

Setting [2] is: highest concentration tested (3.33 μM).

T1 sequence (Q9LRR7 41-599): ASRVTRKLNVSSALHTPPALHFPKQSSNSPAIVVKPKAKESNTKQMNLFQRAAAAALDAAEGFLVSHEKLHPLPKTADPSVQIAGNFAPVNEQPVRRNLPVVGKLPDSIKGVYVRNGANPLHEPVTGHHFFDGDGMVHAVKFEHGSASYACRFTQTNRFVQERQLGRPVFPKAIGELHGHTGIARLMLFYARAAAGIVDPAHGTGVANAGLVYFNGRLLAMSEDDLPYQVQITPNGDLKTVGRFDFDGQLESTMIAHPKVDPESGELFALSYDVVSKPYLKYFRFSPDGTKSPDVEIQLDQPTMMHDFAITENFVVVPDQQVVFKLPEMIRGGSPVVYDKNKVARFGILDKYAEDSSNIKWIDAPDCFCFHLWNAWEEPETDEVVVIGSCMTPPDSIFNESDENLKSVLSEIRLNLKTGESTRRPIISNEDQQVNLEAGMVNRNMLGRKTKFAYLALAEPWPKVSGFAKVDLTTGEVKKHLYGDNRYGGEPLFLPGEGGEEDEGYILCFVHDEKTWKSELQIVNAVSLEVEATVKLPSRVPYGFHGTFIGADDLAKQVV

What is called inhibition is the percentage by which the read-out fell short of the control. By Ki is commonly meant a dissociation constant, usually derived from enzyme kinetics or from competition with a known ligand. `CCSCC=C(C)C#CC1(O)C(C)CC(=O)CC1(C)C` (racemic) [Compound 13, (4S,5R/4R,5S)-(3′Z)-4-(5′-(Ethylthio)-3′-methylpent-3′-en-1′-ynyl)-4-hydroxy-3,3,5-trimethylcyclohexanone]: the “relative expression level of AtNCED3 in mannitol stressed plants (in words)” value (from here on “relative expression level of AtNCED3”) in the experiment with AtNCED3 is on record as “decrease the relative expression levels of AtNCED3”. In addition, the figures for the “reduction of seed germination” value in experiment [1] (1 μM in germination medium) and in experiment [1] (setting [2]) were 26% and 38%, respectively. Besides, the “less effect on germination than (+)-ABA 1” value in experiment [1] (compared with (+)-ABA 1) was 60-70%. For the same molecule, the “effect on seed germination at low concentrations (in words)” value in experiment [1] is given as “slight promotion effects”. The inhibition at 1000 µM at recombinant AtNCED3 (1 mM compound) is 75%. Further, the inhibition constant Ki on recombinant AtNCED3 is 93 µM.
Take `C/C(C#C[C@@]12O[C@]1(C)C[C@@H](O)CC2(C)C)=C/CSc1ccccc1` [Compound 17, (1R,3S,6R)-(3′Z)-1,5,5-Trimethyl-6-(3′-methyl-5′-(phenylthio)-pent-3′-en-1′-ynyl)-7-oxa-bicyclo[4.1.0]heptan-3-ol]: in the experiment on AtNCED3, the “relative expression level of AtNCED3” value was “similar, although not as pronounced effects”. Also, in experiment [1] (1 μM in germination medium), the “reduction of seed germination” value is recorded as 26%. In addition, in experiment [1] (setting [2]), the “reduction of seed germination” value is recorded as 51%. For the same molecule, the “effect on seed germination at low concentrations (in words)” value in experiment [1] is “slight promotion effects”. Further, at recombinant AtNCED3, the inhibition constant (Ki) worked out at 57 µM and the “relative inhibition of AtNCED3 activity (in words)” value is recorded as “completely inhibited”.
Turning to `C/C(C#C[C@@]12O[C@]1(C)C[C@@H](O)CC2(C)C)=C/CNc1ccccc1` [Compound 18, (1R,3S,6R)-(3′Z)-1,5,5-Trimethyl-6-(3′-methyl-5′-(phenylamino)-pent-3′-en-1-ynyl)-7-oxabicyclo[4.1.0]heptan-3-ol], the “relative expression level of AtNCED3” value in the experiment on AtNCED3 is listed as “similar, although not as pronounced effects”. Besides, the “reduction of seed germination” value in experiment [1] (1 μM in germination medium) was 50%. Also, in experiment [1] (setting [2]), the “reduction of seed germination” value is 71%. Moreover, on recombinant AtNCED3, the Ki was 87 µM and the “relative inhibition of AtNCED3 activity (in words)” value was “completely inhibited”.
